Molecules are shown by their SMILES. Like-named read-outs stand apart in the source and are kept apart here.

Assay [1] deals with yeast strain 2AS (2 copies of AS-GFP gene). The class given is cell-based. The protocol: (§1) Third, the drugs were assayed in a yeast model of Parkinson's Disease, which expresses an alpha-synuclein-Green Fluorescent Protein (AS-GFP) construct under the control of a galactose promoter.
Construction of the 1AS and 2AS strains has been described in detail previously.^55 Strains were grown in YPD supplemented with 30 μg/ml of all amino acids. The OD600 was adjusted to 0.05 in drop-out media (no uracil) at 30° C. Drugs were dissolved in methanol at 0.01 micromolar, 0.1 micromolar, 1 micromolar or 10 micromolar followed by addition of 100 micromolar or 5 mM galactose to a final volume of 10 mL.

In assay [2] the test system is alpha-synuclein-GFP aggregation in yeast strain 2AS. The class given is cell-based. As to conditions: 1 micromolar compound, 5 mM galactose. How it is done:
as §1
For Analysis of AS-GFP distribution, the 2AS strain was grown overnight in drop-out media. After normalization of culture density, galactose was administered to a final concentration of 5 mM. […] For the yeast recovery assay, yeast cells were obtained after 6 hours induction with 5 mM galactose concentration, washed in galactose free media and the compounds were added to a final concentration of 1 micromolar in a 2 mL reaction mixture. The culture was incubated at 30° C. for 3, 6, and 9 hour intervals. Images were obtained at each interval using an Olympus Infinity (BX51) fluorescence microscope at 100× magnification.

Assay [3] relates to male Sprague-Dawley rats with increased alpha-synuclein expression. The assay can be described thus: Forced swim test in ASIA-treated rats. The class given is in vivo, rat. As to conditions: ASIA + compound 3 mg/kg. The protocol: male Sprague-Dawley rats are used (200 g-300 g). All animals are handled ethically following approved protocols. For the first round of studies, rats are divided into five treatment groups:
Rats are subjected to 7-day chronic injection of 3 mg/kg of each test compound, and a forced swim test is conducted after the seventh day to measure motor deficits. […] For a second round of studies, rats are divided into four treatment groups, and the same experiments were repeated:
The forced swim test is carried out by immersing the rat in water that is sufficiently deep to force the rat to swim. The forced swim test is scored based on the following criteria:
Vigor and success are measures of motor function. Immobility is thought to be a measure of depression.^59 Based on videos of the forced swim test, the amount of time that each rat was motionless was calculated as a form of scoring depression for each treatment. Statistical analysis was carried out using an ordinary one-way ANOVA and Tukey multiple comparisons test.

The target in assay [4] is T1, alpha-synuclein (Homo sapiens, UniProt P37840). The assay can be described thus: Isothermal titration calorimetry (ITC) binding to alpha-synuclein. For Bind to N and C?: key: Y indicates yes; N indicates no. The settings on record: for # Binding sites: Table 2; for Bind to N and C?: binds to both N and C portions of alpha-synuclein; for # of Binding sites: bifunctional molecules (or monomers) per alpha-synuclein molecule, best fit. The protocol: (§2) Nanopore analysis and isothermal titration calorimetry were performed as described previously.^21,54
A general note: In ITC the heat of successive injections is recorded.

Assay [5] deals with T1, alpha-synuclein. The assay can be described thus: Nanopore analysis of alpha-synuclein (blockade current histograms). Format: binding. As to conditions: for nanopore profile of additional bifunctional molecules: FIGS. 9A-9D; for binding to alpha-synuclein: method not stated for these compounds. The protocol: The bifunctional molecules were characterized by four different methods. […] If the compound causes a more compact conformation, then the alpha-synuclein can no longer translocate and it simply bumps into the pore giving rise to a very small change in the blockade current.^44-46
as §2

Where [6] appears, read: 1 micromolar compound + 100 micromolar galactose.
Where [7] appears, read: 1 micromolar compound + 5 mM galactose.

Turning to `NC1CCc2ccccc21` (racemic) [(R,S)-1-aminoindan, reference compound], the “growth of 2AS yeast” value in assay [1] (setting [6]) was “rate of growth which is similar to that shown by the WT strain”. Besides, the “formation of foci delayed until (time after induction)” value in assay [2] is 9 h. Besides, in assay [3], the “immobility in forced swim test” value is “partially reversed”. Moreover, in assay [3] (last three minutes of the test), the “success in forced swim test” value is listed as “some improvement” and the “vigor in forced swim test” value is on record as “some improvement”.
For the molecule `CN1CCC[C@H]1c1cccnc1` (racemic) [(R,S)-nicotine, reference compound], the “growth of 2AS yeast” value in assay [1] (setting [6]) is recorded as “rate of growth which is similar to that shown by the WT strain”. For the same molecule, in assay [2], the “formation of foci delayed until (time after induction)” value amounted to 9 h.
`Cn1c(=O)c2c(ncn2CCN2CCCC2c2cccnc2)n(C)c1=O` (racemic) [Compound C7-2-N]: at alpha-synuclein [4], the “# Binding sites” value is recorded as 1; the “Bind to N and C?” value is reported as “Y”. This molecule returned a Ka at alpha-synuclein [4] (Table 2, ITC) of 50000 M⁻¹. Besides, on alpha-synuclein [5], the “nanopore profile of additional bifunctional molecules” value is “bumping peaks, but have a shifted translocation peak visible as well”.
In the case of `Cn1c(=O)c2c(ncn2CCCCN2CCCC2c2cccnc2)n(C)c1=O` (racemic) [Compound C7-4-N], at alpha-synuclein [4], the “# Binding sites” value came out at 1; the “Bind to N and C?” value is listed as “Y”. The molecule also yielded a Ka on alpha-synuclein [4] (Table 2, ITC) of 3e+06 M⁻¹. On alpha-synuclein [5], the “nanopore profile of additional bifunctional molecules” value is given as “bumping peaks, but have a shifted translocation peak visible as well”.
On to `Cn1c(=O)c2c(ncn2CCCCCCN2CCCC2c2cccnc2)n(C)c1=O` (racemic) [Compound C7-6-N], for which the “lag before growth rescue / reaching the growth plateau” value in assay [1] (setting [7]) is given as “about 6 hours”. In addition, on alpha-synuclein [4] (ITC in 1.0M KCl), the Ka was 5.1e+06 M⁻¹ and the “# of Binding sites” value turned out to be 1. Besides, at alpha-synuclein [4], the “# Binding sites” value amounted to 1; the “Bind to N and C?” value is recorded as “Y”. At alpha-synuclein [4] (Table 2, ITC), this molecule gave a Ka of 5e+06 M⁻¹.
In the case of `Cn1c(=O)c2c(ncn2CCCCCCCCN2CCCC2c2cccnc2)n(C)c1=O` (racemic) [Compound C7-8-N], at alpha-synuclein [4], the “# Binding sites” value is given as 1; the “Bind to N and C?” value is reported as “Y”. The molecule further returned a Ka at alpha-synuclein [4] (Table 2, ITC) of 4e+06 M⁻¹. Further, the “nanopore profile of additional bifunctional molecules” value at alpha-synuclein [5] is on record as “bumping peaks, but have a shifted translocation peak visible as well”.
On to `Cn1c(=O)c2c(nc(CCCCCCCCNC3CCc4ccccc43)n2C)n(C)c1=O` (racemic) [Compound C8-8-I], for which the binding to alpha-synuclein entry at alpha-synuclein [5] is recorded as “bind to alpha-synuclein”.
Consider `Cn1c(=O)c2c(nc(CCCCCCCCN3CCCC3c3cccnc3)n2C)n(C)c1=O` (racemic) [Compound C8-8-N], for which, at alpha-synuclein [5], the binding to alpha-synuclein result is reported as “bind to alpha-synuclein”.
As to `NC1CCc2c(F)cccc21` (centres unmarked) [4-Fluoro-indan-1-yl-amine, reference compound], at alpha-synuclein [4], the “# Binding sites” value is recorded as 0.5; the “Bind to N and C?” value is reported as “Y”. Further, the Kd on alpha-synuclein [4] (Table 2, ITC, read-out: Ka (converted)) is 333 nM.
With `Cn1c(=O)c2c(ncn2CCn2cnc3c2c(=O)n(C)c(=O)n3C)n(C)c1=O` [Compound C7-2-C7], at alpha-synuclein [4], the “# Binding sites” value amounted to 1; the “Bind to N and C?” value was “Y”. The Ka at alpha-synuclein [4] (Table 2, ITC) stood at 30000 M⁻¹. At alpha-synuclein [5], the “nanopore profile of additional bifunctional molecules” value is listed as “significant bumping peaks”.
Turning to `Cn1c(=O)c2c(ncn2CCNC2CCc3ccccc32)n(C)c1=O` (centres unmarked) [Compound C7-2-I], on alpha-synuclein [4], the “# Binding sites” value is on record as 1; the “Bind to N and C?” value is listed as “Y”. Besides, on alpha-synuclein [4] (Table 2, ITC), the Ka amounted to 90000 M⁻¹. Further, the “nanopore profile of additional bifunctional molecules” value at alpha-synuclein [5] was “significant bumping peaks”.
For `Cn1c(=O)c2c(ncn2CCCCn2cnc3c2c(=O)n(C)c(=O)n3C)n(C)c1=O` [Compound C7-4-C7] the same measures were 0.5, “Y”, 1e+07 M⁻¹ and “significant bumping peaks”.
Consider `Cn1c(=O)c2c(ncn2CCCCNC2CCc3ccccc32)n(C)c1=O` (centres unmarked) [Compound C7-4-I], for which, at alpha-synuclein [4], the “# Binding sites” value is recorded as 1; the “Bind to N and C?” value is “Y”. Also, on alpha-synuclein [4] (Table 2, ITC), the Ka is 5e+06 M⁻¹. The “nanopore profile of additional bifunctional molecules” value at alpha-synuclein [5] was “bumping peaks, but have a shifted translocation peak visible as well”.
With `Cn1c(=O)c2c(ncn2CCCCCCn2cnc3c2c(=O)n(C)c(=O)n3C)n(C)c1=O` [Compound C7-6-C7], the “growth of 2AS yeast” value in assay [1] (setting [7]) is “marginal growth rescue”. On alpha-synuclein [4] (ITC in 1.0M KCl), the Ka came to 720000 M⁻¹ and the “# of Binding sites” value stood at 2. Besides, at alpha-synuclein [4], the “# Binding sites” value came to 2; the “Bind to N and C?” value was “Y”. Further, the Ka on alpha-synuclein [4] (Table 2, ITC) worked out at 700000 M⁻¹. For the same molecule, the “nanopore profile (bumping peak / binding)” value on alpha-synuclein [5] (1 micromolar alpha-synuclein, 20 micromolar compound, FIG. 3) is “predominantly bumping peaks”.
Take `Cn1c(=O)c2c(ncn2CCCCCCNC2CCc3ccccc32)n(C)c1=O` (centres unmarked) [Compound C7-6-I]: in assay [1] (setting [7]), the “growth of 2AS yeast” value is given as “moderate growth” and the “lag before growth rescue / reaching the growth plateau” value was “about 6 hours”. Besides, on alpha-synuclein [4] (ITC in 1.0M KCl), the Ka was 2.6e+06 M⁻¹ and the “# of Binding sites” value turned out to be 1. In addition, at alpha-synuclein [4], the “# Binding sites” value worked out at 1; the “Bind to N and C?” value was “Y”. Also, the Ka on alpha-synuclein [4] (Table 2, ITC) is 2e+06 M⁻¹. Further, in assay [2] (up to 12 hours), the “AS-GFP foci / fluorescence pattern” value is reported as “more diffuse area of fluorescence”.
Regarding `Cn1c(=O)c2c(ncn2CCCCCCCCn2cnc3c2c(=O)n(C)c(=O)n3C)n(C)c1=O` [Compound C7-8-C7], at alpha-synuclein [4], the “# Binding sites” value was 0.5; the “Bind to N and C?” value was “Y”. Also, the Ka on alpha-synuclein [4] (Table 2, ITC) was determined as 400000 M⁻¹. The “nanopore profile of additional bifunctional molecules” value at alpha-synuclein [5] is “significant bumping peaks”.
For `Cn1c(=O)c2c(ncn2CCCCCCCCNC2CCc3ccccc32)n(C)c1=O` (centres unmarked) [Compound C7-8-I], on alpha-synuclein [4], the “# Binding sites” value is recorded as 0.5; the “Bind to N and C?” value is “Y”. Moreover, at alpha-synuclein [4] (Table 2, ITC), the Ka was determined as 2e+07 M⁻¹. Moreover, the “nanopore profile of additional bifunctional molecules” value on alpha-synuclein [5] was “bumping peaks, but have a shifted translocation peak visible as well”.
Consider `Cn1c(=O)c2c(nc(CCc3nc4c(c(=O)n(C)c(=O)n4C)n3C)n2C)n(C)c1=O` [Compound C8-2-C8], for which, at alpha-synuclein [4], the “# Binding sites” value stood at 1; the “Bind to N and C?” value is “Y”. The molecule also displayed a Ka on alpha-synuclein [4] (Table 2, ITC) of 900000 M⁻¹. Moreover, the “nanopore profile of additional bifunctional molecules” value at alpha-synuclein [5] is recorded as “significant bumping peaks”.
The matching figures for `CN(CCCCCCCc1nc2c(c(=O)n(C)c(=O)n2C)n1C)C(=N)NC(=N)N.Cl` [Compound C8-7-M]: 2, “Y”, 640000 M⁻¹ and “significant bumping peaks”.
For `CN1CCCC1c1cccnc1` (centres unmarked) [Nicotine, nicotine, reference compound], the Kd at alpha-synuclein [4] (Ka) came out at 1000 nM. Also, at alpha-synuclein [4], the “# Binding sites” value is 1; the “Bind to N and C?” value was “Y”.
Take `N[C@@H]1CCc2ccccc21` [R-Aminoindan, reference compound]: at alpha-synuclein [4] (ITC in 1.0M KCl), the Ka came to 1e+06 M⁻¹ and the “# of Binding sites” value is reported as 1. Further, at alpha-synuclein [4], the “# Binding sites” value is 1; the “Bind to N and C?” value was “Y”. The Ka at alpha-synuclein [4] (Table 2, ITC) worked out at 1e+06 M⁻¹.
`CN1CCC[C@@H]1c1cccnc1` [R-Nicotine, reference compound]: on alpha-synuclein [4] (ITC in 1.0M KCl), the “# of Binding sites” value turned out to be 1. The same molecule showed a Kd at alpha-synuclein [4] (Ka) of 714 nM.
Take `N[C@H]1CCc2ccccc21` [S-Aminoindan, reference compound]: on alpha-synuclein [4] (ITC in 1.0M KCl), the Ka worked out at 3.1e+06 M⁻¹ and the “# of Binding sites” value was found to be 1. Moreover, at alpha-synuclein [4], the “# Binding sites” value is 1; the “Bind to N and C?” value is on record as “Y”. At alpha-synuclein [4] (Table 2, ITC), the Ka came out at 3e+06 M⁻¹.
As for `CN1CCC[C@H]1c1cccnc1` [S-Nicotine, reference compound], at alpha-synuclein [4] (ITC in 1.0M KCl), the Ka came to 400000 M⁻¹ and the “# of Binding sites” value was found to be 1.
Consider `C=C(C)[C@H]1Cc2c(ccc3c2O[C@@H]2COc4cc(OC)c(OC)cc4[C@@H]2C3=O)O1` [rotenone, reference compound], for which the “growth of 2AS yeast” value in assay [1] (setting [6]) was “significant reduction of growth”.
